Target: Nicotinamide phosphoribosyltransferase (Homo sapiens, UniProt P43490)
Assay: In Vitro Inhibition Assay

Nicotinamide phosphoribosyltransferase, sequence (P43490 whole entry): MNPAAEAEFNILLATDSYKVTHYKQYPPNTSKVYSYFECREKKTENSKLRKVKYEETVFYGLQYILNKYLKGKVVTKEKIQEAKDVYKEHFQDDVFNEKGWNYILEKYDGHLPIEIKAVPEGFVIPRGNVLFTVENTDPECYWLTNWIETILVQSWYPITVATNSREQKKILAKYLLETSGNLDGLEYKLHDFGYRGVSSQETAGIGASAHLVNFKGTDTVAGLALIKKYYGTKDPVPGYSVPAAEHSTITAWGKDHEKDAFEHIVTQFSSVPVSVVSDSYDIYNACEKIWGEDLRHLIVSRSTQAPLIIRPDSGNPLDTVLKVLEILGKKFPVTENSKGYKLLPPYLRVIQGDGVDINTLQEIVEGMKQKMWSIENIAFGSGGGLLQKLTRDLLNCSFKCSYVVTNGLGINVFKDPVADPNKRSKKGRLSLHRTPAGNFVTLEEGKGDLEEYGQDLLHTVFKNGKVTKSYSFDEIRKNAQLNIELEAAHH

Row | SMILES | IC50 [nM]
1 | C#CCN(Cc1cc2c(=O)n(C)c(CN3CCN(CCN)CC3)nc2cc1Cl)c1ccc(C(=O)NCc2ccccn2)cc1 [MPI-0482594] | 29
2 | C#CCN(Cc1cc2c(=O)n(C)c(CN3CCN(C)CC3)nc2cc1Cl)c1ccc(C(=O)NCc2ccccn2)cc1 [MPI-0482593] | 74
3 | C#CCN(Cc1cc2c(=O)n(C)c(CN3CCN(C)CC3)nc2cc1Cl)c1ccc(C(=O)NCc2cccnc2)cc1 | 0.23

From BindingDB's records for doi:10.1016/j.chembiol.2010.05.008 (Kyowa Hakko Kogyo, 2010)
